Here are results for three molecules from US20260317304A1, “TEAD INHIBITORS AND METHODS OF USE” (Sporos BioDiscovery, Inc., priority 2022, published 2026).

One assay relates to MSTO-211H xenograft. The assay is described as follows: Mouse xenograft MSTO-211H tumors, study part 2. The settings on record: PO. Format: in vivo, BALB/c nude mice. An excerpt: This study evaluated the in vivo anti-tumor efficacy of test compounds in BALB/c nude mice for treatment of MSTO-211H xenograft of lung cancer.
• Species: Mus Musculus • Strain: BALB/c nude • Age: 6-8 weeks • Sex: female • Body weight: 18-22 g • Number of animals inoculated with tumor: 80 mice • Number of animals enrolled in the treatment: 36 mice • Number of unenrolled animals: 44 mice • Animal supplier: Beijing Vital River Biotechnology Experimental Animal Co. Ltd Certification number: 20170011010591
The MSTO-211H tumor cells were maintained in RPMI 1640 medium supplemented with 10% Fetal bovine serum and 1% Antibiotic-Antimycotic at 37° C. in an atmosphere of 5% CO2 in air. The tumor cells were routinely subcultured twice weekly by trypsin-EDTA. The cells growing in an exponential growth phase with 95% cell survival or above were harvested, and counted for tumor inoculation.
Each mouse was inoculated subcutaneously at the right flank with MSTO-211H tumor cells (5×10^6+50% matrigel/0.2 mL) for tumor development. Animals were marked with earrings with unique 6 significant figure number for identification. The treatments of part 1 were started on day 5 after cell inoculation when the average tumor volume reached 181 mm^3. The treatments of part 2 were started on day 16 after cell inoculation when the average tumor volume reached 254 mm^3. The treatments of part 3 were started on day 33 after cell inoculation when the average tumor volume reached 969 mm^3.
The major endpoint was to determine if the tumor growth could be delayed. Tumor volume was measured twice a week in two dimensions using a caliper, and the volume was expressed in mm^3 using the formula: V=0.5 a×b^2 where a and b are the long and short diameters of the tumor, respectively. The tumor size was then used for calculations of T/C value. The TGI value (in percent) or the T/C value (in percent) is an indication of antitumor effectiveness; T and C are the mean tumor volumes or tumor weights of the treated and control groups, respectively, on a given day.
TGI was calculated for each group using the formula: TGI (%)=[1−(Ti−T0)/(Vi−V0)]×100; Ti is the average tumor volume of a treatment group on a given day, T0 is the average tumor volume of the treatment group on the day of treatment start, Vi is the average tumor volume of the vehicle control group on the same day with Ti, and V0 is the average tumor volume of the vehicle group on the day of treatment start.
Relative T/C (%)=TRTV/CRTV×100 (RTV (%)=Vt/V0×100, Vt is the average tumor volume on a given day, V0 is the average tumor volume on the first day of treatment. TRTV is the RTV of a treatment group, and the CRTV is the RTV of the vehicle control group.)
The antitumor effectiveness of part 2 study was analyzed on PG-D30 when vehicle group reached 738 mm^3.
Summary statistics, including mean and the standard error of the mean (SEM), were provided for the tumor volume of each group at each time point.
Statistical analysis of difference in tumor volume among the groups was conducted on the data obtained at the end of the study.
One-tailed T test was performed to compare tumor volumes between two groups. All data are analyzed using GraphPad Prism 6.0. p<0.05 is considered to be statistically significant.

Another assay deals with NCI-H226 cells. Nature of the assay: Proliferation and cell viability assay, Cell Titer One. To be noted: Cell Titer One assay, 6 days. Format: cell-based, human. How it is done: Cell proliferation of a TEAD dependent NF2-null mesothelioma cell line, NCI-H226 was assayed using two different protocols. Results were confirmed in two different TEAD-non-dependent lung cancer cell lines, H23 and H28, were used as non-responsive controls, as indicated:
b) Cell Titer One (Promega, #G3582). The effect of the TEAD inhibitors disclosed herein on cell proliferation was also determined using the Promega Substrate Cell Titer Aqueous One Solution Reagent. The TEAD inhibitors were evaluated for the effects on cell proliferation responder (H226) and non-responder negative control cancer cell lines (CAMA1, H28), as well as non-transformed normal human cells (HUVEC, NHDF). Dissociated cells were resuspend in media (depending on cell line, either in DMEM, RPMI, or EMEM all with 10% FBS, with gentamicin as an antibiotic). Cells were seeded at 100 μL/well at 750 cells per well in 96-well plates and allowed to settle and attach. After an incubation of 24 hrs (37° C., 5% CO2, humidified incubator), 100 μL of test compound-containing media was added. A dilution series of 2000× concentrated stock of test compounds was prepared in DMSO, for final concentrations from 0.1 to 10,000 nM. After addition of test compound-containing media, cells were incubated for 6 days at 37° C., 5% CO2, humidified incubators). To measure cell density, 20 μL of Promega Substrate Cell Titer 96 Aqueous One Solution Reagent (Promega, #G3582) to each well was added according to the manufacturer's instructions. Plates were incubated at 37° C. for usually 3-8 hrs, to reach in the control cells (without compound) an OD of 1.5 at 490 nm. The OD was measured using Vmax [Molecular Devices] spectrophotometer plate reader. Media only-wells were used as background controls and cell densities normalized to DMSO vehicle control. EC50 were taken as the concentration achieving 50% of maximal growth inhibition.
For IC50 and EC50 data “A” indicates a value of less than 0.2 μM; the symbol “B” indicates a value in the range of from 0.2 μM up to 1 μM; and the symbol “C” indicates a value of greater than 1 μM. ND: no data.

Where [1] appears, read: part 2, day 30, 12.5 mg/kg, BID.

Some results are limits rather than exact numbers.

By T/C is commonly meant the result in the treated group divided by that in the control group, in per cent. Consider `Cn1nnc(-c2cc([C@]3(C)CCNC3=O)ccc2Nc2ccc(C(F)(F)F)cc2)n1` (stereo in doubt) [Compound 20, 3-methyl-3-(3-(2-methyl-2H-tetrazol-5-yl)-4-((4-(trifluoromethyl)phenyl)amino)phenyl) pyrrolidin-2-one], for which the Tumor size with MSTO-211H xenograft (part 2, day 0, 12.5 mg/kg, BID) stood at 254 ± 30 mm^3; in the assay with MSTO-211H xenograft (part 2, day 2, 12.5 mg/kg, BID), 249 ± 37 mm^3; with MSTO-211H xenograft (part 2, day 6, 12.5 mg/kg, BID) it was 160 ± 39 mm^3; in the assay on MSTO-211H xenograft (part 2, day 9, 12.5 mg/kg, BID) it was 116 ± 36 mm^3; with MSTO-211H xenograft (part 2, day 12, 12.5 mg/kg, BID), 80 ± 13 mm^3; in the assay on MSTO-211H xenograft (part 2, day 16, 12.5 mg/kg, BID), 75 ± 10 mm^3. In addition, the Tumor size in the assay on MSTO-211H xenograft (part 2, day 20, 12.5 mg/kg, BID) is recorded as 78 ± 14 mm^3; in the assay with MSTO-211H xenograft (part 2, day 23, 12.5 mg/kg, BID) it was 91 ± 10 mm^3; in the assay with MSTO-211H xenograft (part 2, day 27, 12.5 mg/kg, BID), 96 ± 6 mm^3; in the assay on MSTO-211H xenograft (setting [1]) it was 164 ± 15 mm^3. Further, in the assay on MSTO-211H xenograft (setting [1]), the T/C came to 22.24%. The TGI in the assay with MSTO-211H xenograft (setting [1]) is given as 118.44%. For the same molecule, the “Tumor Volume” value with MSTO-211H xenograft (part 2, day 30, 12.5 mg/kg, BID (Table 17)) was 164 ± 15 mm^3.

Broadly, the IC50 is the midpoint of a concentration-inhibition curve. Lower therefore signals inhibition by little substance. With `Cn1cnc(-c2cc([C@@]3(C)CCNC3=O)ccc2Nc2ccc(C(F)(F)F)cc2)c1` (single isomer, unassigned) [Compound 5, 3-methyl-3-(3-(1-methyl-1H-imidazol-4-yl)-4-((4-(trifluoromethyl)phenyl)amino)phenyl)pyrrolidin-2-one], the IC50 with NCI-H226 cells (Homo sapiens, NCI-H226, 144 h) was under 200 nM.

`Cn1cnc(-c2cc(C3(C)NC(=O)NC3=O)ccc2Nc2ccc(C(F)(F)F)cc2)c1` (single isomer, unassigned) [Compound 15, 5-methyl-5-(3-(1-methyl-1H-imidazol-4-yl)-4-((4-(trifluoromethyl)phenyl)amino)phenyl)imidazolidine-2,4-dione] gave a half-inhibitory concentration (IC50) with NCI-H226 cells of under 200 nM.
